Tests used:
Test in all cases: MIC on clinically isolated bacteria
Format in all cases: cell-based
[1] = test system: Pseudomonas aeruginosa M4; details: read-out: MIC
Method in brief: (§1)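 Values were obtained by CLSI-conformant microdilution against clinically isolated Gram-negative strains.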

[2] = test system: Acinetobacter baumannii C315; details: Acinetobacter baumannii C315; read-out: Minimum Inhibitory Concentration (MIC)
Method in brief: as §1

[3] = test system: Pseudomonas aeruginosa W20; details: read-out: MIC
Method in brief: as §1

[4] = test system: Acinetobacter baumannii C361; details: Acinetobacter baumannii C361; read-out: Minimum Inhibitory Concentration (MIC)
Method in brief: as §1

[5] = test system: Acinetobacter baumannii C403; details: Acinetobacter baumannii C403; read-out: Minimum Inhibitory Concentration (MIC)
Method in brief: as §1

[6] = test system: Acinetobacter baumannii C270; details: Acinetobacter baumannii C270; read-out: Minimum Inhibitory Concentration (MIC)
Method in brief: as §1

[7] = test system: Pseudomonas aeruginosa C761; details: read-out: MIC
Method in brief: as §1

[8] = test system: Pseudomonas aeruginosa W19; details: read-out: MIC
Method in brief: as §1

[9] = test system: Pseudomonas aeruginosa W28; details: read-out: MIC
Method in brief: as §1

[10] = test system: Pseudomonas aeruginosa W27; details: read-out: MIC
Method in brief: as §1

[11] = test system: Pseudomonas aeruginosa W29; details: read-out: MIC
Method in brief: as §1

[12] = test system: Acinetobacter baumannii C427; details: Acinetobacter baumannii C427; read-out: Minimum Inhibitory Concentration (MIC)
Method in brief: as §1

[13] = test system: Pseudomonas aeruginosa C755; details: read-out: MIC
Method in brief: as §1

[14] = test system: Pseudomonas aeruginosa W42; details: read-out: MIC
Method in brief: as §1

[15] = test system: Acinetobacter baumannii C390; details: Acinetobacter baumannii C390; read-out: Minimum Inhibitory Concentration (MIC)
Method in brief: as §1

[16] = test system: Acinetobacter baumannii C312; details: Acinetobacter baumannii C312; read-out: Minimum Inhibitory Concentration (MIC)
Method in brief: as §1

[17] = test system: Acinetobacter baumannii C333; details: Acinetobacter baumannii C333; read-out: Minimum Inhibitory Concentration (MIC)
Method in brief: as §1

[18] = test system: Pseudomonas aeruginosa C754; details: read-out: MIC
Method in brief: as §1

[19] = test system: Pseudomonas aeruginosa W9; details: read-out: MIC
Method in brief: as §1

[20] = test system: Pseudomonas aeruginosa C763; details: read-out: MIC
Method in brief: as §1

[21] = test system: Acinetobacter baumannii C328; details: Acinetobacter baumannii C328; read-out: Minimum Inhibitory Concentration (MIC)
Method in brief: as §1

[22] = test system: Pseudomonas aeruginosa W4; details: read-out: MIC
Method in brief: as §1

[23] = test system: Pseudomonas aeruginosa W24; details: read-out: MIC
Method in brief: as §1

[24] = test system: Pseudomonas aeruginosa W47; details: read-out: MIC
Method in brief: as §1

[25] = test system: Acinetobacter baumannii C394; details: Acinetobacter baumannii C394; read-out: Minimum Inhibitory Concentration (MIC)
Method in brief: as §1

Aeruginosa ATCC27853 = details: Pseudomonas aeruginosa; Aeruginosa ATCC27853; read-out: MIC
Method in brief: as §1

[26] = test system: Acinetobacter baumannii C251; details: Acinetobacter baumannii C251; read-out: Minimum Inhibitory Concentration (MIC)
Method in brief: as §1

[27] = test system: Acinetobacter baumannii C402; details: Acinetobacter baumannii C402; read-out: Minimum Inhibitory Concentration (MIC)
Method in brief: as §1

[28] = test system: Pseudomonas aeruginosa W21; details: read-out: MIC
Method in brief: as §1

[29] = test system: Pseudomonas aeruginosa W1; details: read-out: MIC
Method in brief: as §1

[30] = test system: Acinetobacter baumannii C408; details: Acinetobacter baumannii C408; read-out: Minimum Inhibitory Concentration (MIC)
Method in brief: as §1

[31] = test system: Acinetobacter baumannii C319; details: Acinetobacter baumannii C319; read-out: Minimum Inhibitory Concentration (MIC)
Method in brief: as §1

[32] = test system: Acinetobacter baumannii C395; details: Acinetobacter baumannii C395; read-out: Minimum Inhibitory Concentration (MIC)
Method in brief: as §1

[33] = test system: Acinetobacter baumannii C313; details: Acinetobacter baumannii C313; read-out: Minimum Inhibitory Concentration (MIC)
Method in brief: as §1

[34] = test system: Pseudomonas aeruginosa W13; details: read-out: MIC
Method in brief: as §1

[35] = test system: Pseudomonas aeruginosa W46; details: read-out: MIC
Method in brief: as §1

[36] = test system: Acinetobacter baumannii C332; details: Acinetobacter baumannii C332; read-out: Minimum Inhibitory Concentration (MIC)
Method in brief: as §1

[37] = test system: Pseudomonas aeruginosa C745; details: read-out: MIC
Method in brief: as §1

[38] = test system: Acinetobacter baumannii C401; details: Acinetobacter baumannii C401; read-out: Minimum Inhibitory Concentration (MIC)
Method in brief: as §1

[39] = test system: Pseudomonas aeruginosa W32; details: read-out: MIC
Method in brief: as §1

[40] = test system: Acinetobacter baumannii C357; details: Acinetobacter baumannii C357; read-out: Minimum Inhibitory Concentration (MIC)
Method in brief: as §1

Measured: MIC

CC1(C)[C@H](NC(=O)/C(=N\O[C@@H](COc2ccc3c(c2)CN(C(=N)NCCN)C3)C(=O)O)c2csc(N)n2)C(=O)N1OS(=O)(=O)O [Compound 44]
4 µg/mL: [9] | [10] | [19] | [26] | [37]
0.5 µg/mL: [1] | [13] | [14] | [18] | [22] | Aeruginosa ATCC27853 | [28] | [34]
2 µg/mL: [3] | [5] | [11] | [12] | [17] | [20] | [23] | [24] | [29] | [39]
1 µg/mL: all other assays above

Reference: patent publication US11459323B2, “Monocyclic β-lactam compound for treating bacterial infection” (MEDSHINE DISCOVERY INC., priority 2018, dated 2022)
